What was measured:
[1] = biological target: T1, mouse TLR7 (Mus musculus, UniProt P58681); assay: Short-term in vivo (STIV) assay: oral dosing, R848 s.c., plasma IL-6; parameters: female BALB/c mice (Jackson Labs, Bar Harbor, Me.) were dosed by oral gavage; tissue Jackson Labs; host or cells: living female BALB/c mice; plasma IL-6 after s.c. R848
T1 sequence (P58681 27-1050): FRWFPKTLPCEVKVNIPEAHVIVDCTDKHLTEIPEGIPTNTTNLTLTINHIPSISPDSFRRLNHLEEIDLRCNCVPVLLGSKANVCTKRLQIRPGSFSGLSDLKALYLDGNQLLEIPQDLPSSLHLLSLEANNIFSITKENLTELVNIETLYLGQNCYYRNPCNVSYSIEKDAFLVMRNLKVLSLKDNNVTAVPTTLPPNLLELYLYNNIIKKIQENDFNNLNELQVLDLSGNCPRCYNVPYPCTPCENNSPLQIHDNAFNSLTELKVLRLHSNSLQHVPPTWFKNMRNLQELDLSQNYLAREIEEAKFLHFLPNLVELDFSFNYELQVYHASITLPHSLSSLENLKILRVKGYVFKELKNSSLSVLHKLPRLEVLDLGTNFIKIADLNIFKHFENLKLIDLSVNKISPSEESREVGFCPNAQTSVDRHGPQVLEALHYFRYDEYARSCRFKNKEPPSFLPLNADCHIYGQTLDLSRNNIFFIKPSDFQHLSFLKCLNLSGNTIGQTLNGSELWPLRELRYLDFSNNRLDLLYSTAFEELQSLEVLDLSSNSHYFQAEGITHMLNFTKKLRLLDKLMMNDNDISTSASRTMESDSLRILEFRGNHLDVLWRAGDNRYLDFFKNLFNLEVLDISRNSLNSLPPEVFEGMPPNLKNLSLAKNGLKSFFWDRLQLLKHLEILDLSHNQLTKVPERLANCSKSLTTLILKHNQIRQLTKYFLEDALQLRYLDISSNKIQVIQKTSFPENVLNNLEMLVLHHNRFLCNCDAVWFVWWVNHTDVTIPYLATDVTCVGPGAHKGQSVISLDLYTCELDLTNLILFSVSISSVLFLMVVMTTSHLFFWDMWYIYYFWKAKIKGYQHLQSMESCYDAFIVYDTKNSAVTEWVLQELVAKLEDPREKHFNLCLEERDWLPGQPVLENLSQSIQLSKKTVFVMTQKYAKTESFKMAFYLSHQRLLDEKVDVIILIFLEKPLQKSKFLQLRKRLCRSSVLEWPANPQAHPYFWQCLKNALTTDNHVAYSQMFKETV
Procedure: Figure Legend: Female BALB/c mice were dosed by oral gavage with Vehicle alone (0.5% aqueous methyl-cellulose) or compound formulated in Vehicle at 33 mg/kg, 100 mg/kg or 300 mg/kg. […] (FIG. 1A).
Short-term in vivo (STIV) assay: To assess compound potency in vivo against mouse TLR7, a short-term in vivo (STIV) assay was utilized. Briefly, mice were orally dosed with compounds and at various time points afterwards were injected subcutaneously with agonist R848 to stimulate TLR7. The plasma IL-6 level following R848 stimulation was then measured by ELISA to assess compound potency and duration-of-action.
Short-term in vivo (STIV) assay. Six to eight week old female BALB/c mice (Jackson Labs, Bar Harbor, Me.) were dosed by oral gavage in 200 ul volume with antagonist compounds formulated in 0.5% aqueous methyl-cellulose (Sigma, St. Louis, Mo.). At various time points afterwards, mice were injected subcutaneously (s.c.) in 100 ul volume with 15 ug R848 (Resiquimod; GLSynthesis, Worcester, Mass.) to stimulate TLR7.

[2] = tested on: Human TLR7/8; assay: Human PBMC cell-based assay, TLR7/8 stimulus (RNA-Ig), cytokine ELISA; conditions: primary human PBMC assay, TLR7/8 potency; ligand not given; read-out: Human PBMCs IC50
Method in brief: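 Healthy-donor human PBMC, 2×10^5 cells/well (1×10^5 in later assay), pre-treated 30 min with compound (0.1% DMSO). Stimulated 20 h at 37 °C with RNA-Ig: 26-mer U1 snRNA stem loop IV phosphorothioate RNA at 2.5 μM plus anti-ssDNA antibody (1:25 or 1 ug/ml). Supernatant cytokines by ELISA.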

Row | Compound | % Suppression vs. Vehicle ([1]; 6 h, 100 mg/kg) [%] | % Suppression vs. Vehicle ([1]; 13 h, 100 mg/kg) [%] | IC50 [2] [nM] | % Suppression vs. Vehicle ([1]; 6 h, 33 mg/kg) [%] | also measured
1 | C[C@@H]1CN(c2ccc(C#N)c3ncccc23)C[C@H](C(=O)N[C@@H]2CNC[C@@H]2F)O1.Cl [ER-899745] | 100 | 5 | 4 | – | –
2 | CNCC1CN(C(=O)[C@H]2CN(c3ccc(C#N)c4ncccc34)C[C@@H](C)O2)C1 [ER-899018] | 73 | 12 | 9 | – | –
3 | CC1CN(c2ccc(C#N)c3ncccc23)CC(C(=O)NCC(C)(C)N(C)C)O1 (centres unmarked) [ER-898566] | 99 | 86 | 11 | 100 | % Suppression vs. Vehicle ([1]; 13 h, 33 mg/kg): 73%; % Suppression vs. Vehicle ([1]; 13 h, 300 mg/kg): 98%; % Suppression vs. Vehicle ([1]; 24 h, 33 mg/kg): 0%; % Suppression vs. Vehicle ([1]; 24 h, 100 mg/kg): 30%; % Suppression vs. Vehicle ([1]; 24 h, 300 mg/kg): 100%
4 | C[C@@H]1CN(c2ccc(C#N)c3ncccc23)C[C@H](C(=O)N[C@@H]2CCCN(C)C2)O1 [ER-899337] | 99 | 30 | 2 | – | –
5 | CC[C@H]1CN(C[C@H]2CN(c3ccc(C#N)c4ncccc34)C[C@@H](C)O2)CCN1C [ER-890964] | – | – | 1 | – | % Suppression vs. Vehicle ([1]; 3 h, 33 mg/kg): 96%; % Suppression vs. Vehicle ([1]; 19 h, 33 mg/kg): 0%
6 | CC1CN(c2ccc(C#N)c3ncccc23)CC(C(=O)NC2CCCNC2)O1 (centres unmarked) [ER-897968] | – | 35 | 1 | 81 | % Suppression vs. Vehicle ([1]; 13 h, 33 mg/kg): 3%; % Suppression vs. Vehicle ([1]; 13 h, 300 mg/kg): 85%; % Suppression vs. Vehicle ([1]; 24 h, 33 mg/kg): 0%; % Suppression vs. Vehicle ([1]; 24 h, 100 mg/kg): 8%; % Suppression vs. Vehicle ([1]; 24 h, 300 mg/kg): 80%
7 | CC1CN(c2ccc(C#N)c3ncccc23)CC(C(=O)NC2CCCNCC2)O1 (centres unmarked) [ER-899417] | 71 | 0 | 1 | – | –
8 | CC1CN(c2ccc(C#N)c3ncccc23)CC(C(=O)NC2C3CNCC32)O1 (centres unmarked) [ER-899418] | 19 | 10 | 5 | – | –
9 | CC1CN(c2ccc(C#N)c3ncccc23)CC(C(=O)NC2CCCN(C)C2)O1 (centres unmarked) [ER-899688] | 10 | 96 | 11 | – | –
10 | CC1CN(c2ccc(C#N)c3ncccc23)CC(C(=O)NC2CCNCC2)O1 (centres unmarked) [ER-898946] | – | 16 | 2 | 61 | % Suppression vs. Vehicle ([1]; 13 h, 33 mg/kg): 2%; % Suppression vs. Vehicle ([1]; 13 h, 300 mg/kg): 55%; % Suppression vs. Vehicle ([1]; 24 h, 33 mg/kg): 28%; % Suppression vs. Vehicle ([1]; 24 h, 100 mg/kg): 0%; % Suppression vs. Vehicle ([1]; 24 h, 300 mg/kg): 34%
11 | CC1CN(c2ccc(C#N)c3ncccc23)CC(CN2CCC(NC(=O)c3ccccc3)CC2)O1 (centres unmarked) [ER-888321] | 100 | 100 | 22 | 86 | % Suppression vs. Vehicle ([1]; 3 h, 33 mg/kg): 98%; % Suppression vs. Vehicle ([1]; 3 h, 100 mg/kg): 100%; % Suppression vs. Vehicle ([1]; 13 h, 33 mg/kg): 87%; % Suppression vs. Vehicle ([1]; 19 h, 33 mg/kg): 59%; % Suppression vs. Vehicle ([1]; 19 h, 100 mg/kg): 59%
12 | C[C@@H]1CN(c2ccc(C#N)c3ncccc23)C[C@H](CN2CCN[C@@H](C)C2)O1 [ER-887270] | – | 81 | 1 | 98 | % Suppression vs. Vehicle ([1]; 13 h, 33 mg/kg): 37%; % Suppression vs. Vehicle ([1]; 13 h, 300 mg/kg): 99%; % Suppression vs. Vehicle ([1]; 24 h, 33 mg/kg): 25%; % Suppression vs. Vehicle ([1]; 24 h, 100 mg/kg): 26%; % Suppression vs. Vehicle ([1]; 24 h, 300 mg/kg): 100%
13 | CC1CN(c2ccc(C#N)c3ncccc23)CC(C(=O)NCC2CCCN2)O1 (centres unmarked) [ER-897969] | – | 54 | 7 | 0 | % Suppression vs. Vehicle ([1]; 13 h, 33 mg/kg): 29%; % Suppression vs. Vehicle ([1]; 13 h, 300 mg/kg): 71%; % Suppression vs. Vehicle ([1]; 24 h, 33 mg/kg): 0%; % Suppression vs. Vehicle ([1]; 24 h, 100 mg/kg): 4%; % Suppression vs. Vehicle ([1]; 24 h, 300 mg/kg): 29%
14 | CC1CN(c2ccc(C#N)c3ncccc23)CC(CN2CCNC(C)C2C)O1 (centres unmarked) [ER-887137] | 100 | – | 2 | 99 | % Suppression vs. Vehicle ([1]; 3 h, 33 mg/kg): 100%; % Suppression vs. Vehicle ([1]; 3 h, 100 mg/kg): 100%; % Suppression vs. Vehicle ([1]; 3 h, 300 mg/kg): 100%; % Suppression vs. Vehicle ([1]; 6 h, 300 mg/kg): 100%; % Suppression vs. Vehicle ([1]; 19 h, 33 mg/kg): 38%; % Suppression vs. Vehicle ([1]; 19 h, 100 mg/kg): 63%; % Suppression vs. Vehicle ([1]; 19 h, 300 mg/kg): 100%
15 | Cc1cc(CO)cc(-c2ccc(C#N)c3ncccc23)c1 [ER-888201] | 50 | – | 4 | 35 | % Suppression vs. Vehicle ([1]; 6 h, 300 mg/kg): 40%; % Suppression vs. Vehicle ([1]; 19 h, 33 mg/kg): 45%; % Suppression vs. Vehicle ([1]; 19 h, 100 mg/kg): 71%; % Suppression vs. Vehicle ([1]; 19 h, 300 mg/kg): 79%
16 | CC1CN(c2ccc(C#N)c3ncccc23)CC(C(=O)NCC2CNCCO2)O1 (centres unmarked) [ER-898694] | – | 36 | 2 | 93 | % Suppression vs. Vehicle ([1]; 13 h, 33 mg/kg): 2%; % Suppression vs. Vehicle ([1]; 13 h, 300 mg/kg): 53%; % Suppression vs. Vehicle ([1]; 24 h, 33 mg/kg): 0%; % Suppression vs. Vehicle ([1]; 24 h, 100 mg/kg): 0%; % Suppression vs. Vehicle ([1]; 24 h, 300 mg/kg): 35%
17 | CC1CN(c2ccc(C#N)c3ncccc23)CC(C(=O)NC2CCOCC2)O1 (centres unmarked) [ER-899122] | – | 100 | 80 | – | % Suppression vs. Vehicle ([1]; 6 h, 11 mg/kg): 98%; % Suppression vs. Vehicle ([1]; 13 h, 11 mg/kg): 37%; % Suppression vs. Vehicle ([1]; 13 h, 33 mg/kg): 90%; % Suppression vs. Vehicle ([1]; 24 h, 11 mg/kg): 0%; % Suppression vs. Vehicle ([1]; 24 h, 33 mg/kg): 15%; % Suppression vs. Vehicle ([1]; 24 h, 100 mg/kg): 89%
18 | C[C@@H]1CN(c2ccc(C#N)c3ncccc23)C[C@H](C(=O)N(C)[C@@H]2CCCNC2)O1 [ER-899616] | 79 | 27 | 54 | – | –
19 | CC(C)N1CCN(C[C@H]2CN(c3ccc(C#N)c4ncccc34)C[C@@H](C)O2)CC1 [ER-888322] | 100 | – | 18 | 99 | % Suppression vs. Vehicle ([1]; 6 h, 300 mg/kg): 100%; % Suppression vs. Vehicle ([1]; 19 h, 33 mg/kg): 24%; % Suppression vs. Vehicle ([1]; 19 h, 100 mg/kg): 82%; % Suppression vs. Vehicle ([1]; 19 h, 300 mg/kg): 100%
20 | CC1CN(c2ccc(C#N)c3ncccc23)CC(C(=O)Nc2cnn(C3CCNCC3)c2)O1 (centres unmarked) [ER-899285] | 75 | 0 | 7 | – | –
21 | CC1CN(c2ccc(C#N)c3ncccc23)CC(C(=O)NC(CO)C(C)C)O1 (centres unmarked) [ER-897828] | – | – | 21 | – | –
22 | CC1CN(c2ccc(C#N)c3ncccc23)CC(C(=O)NCC2CNC2)O1 (centres unmarked) [ER-899020] | – | – | 35 | – | –
23 | CC1CN(c2ccc(C#N)c3ncccc23)CC(C(=O)NC2CNC2)O1 (centres unmarked) [ER-897964] | – | – | 20 | – | –
24 | CC1CN(c2ccc(C#N)c3ncccc23)CC(CN2CCCC(O)C2)O1 (centres unmarked) [ER-886951] | – | – | 79 | – | –
25 | CC(O)CNC(=O)C1CN(c2ccc(C#N)c3ncccc23)CC(C)O1 (centres unmarked) [ER-897445] | – | – | 104 | – | –
26 | C[C@H]1CN(c2ccc(C#N)c3ncccc23)C[C@@H](CF)O1 [ER-886133] | – | – | 127 | – | –
27 | C[C@@H]1CN(c2ccc(C#N)c3ncccc23)C[C@H](CN2CC(NS(=O)(=O)c3ccc(F)cc3)C2)O1 [ER-894155] | – | – | 42 | – | –
28 | CC1CN(c2ccc(C#N)c3ncccc23)CC(CN2CCCC2C)O1 (centres unmarked) [ER-886856] | – | – | 111 | – | –

From patent USRE47193E1, “Selectively substituted quinoline compounds” (EISAI R&D MANAGEMENT CO., LTD., priority 2013, dated 2019)
